We go through five compounds from patent US20260315436A1, “METHOD OF TREATING DISORDERS WITH SURF1 MALFUNCTION” (Cure Mito Foundation, priority 2023, published 2026).

Series [1] deals with GM28012 SURF1 fibroblasts. As to the kind of experiment: Seahorse mitochondrial stress test, fibroblast cell line GM28012 (Experiment 3, single compounds). Format: cell-based, human. The note with it: 48 h; for maximal respiration (maximal OCR): glucose and galactose conditions. How it is done:
(§1) In order to evaluate selected compounds' impact on mitochondrial function in patient-derived fibroblasts compared to controls, three seahorse assays were conducted, Exp. 1: Fibroblast cell line GM28010—single compounds; Exp. 2. Fibroblast cell line GM28010—combination of compounds+ Single compounds; and Exp. 3: Fibroblast cell line GM28012—single compounds. Seahorse XF24 Extracellular Flux Analyzers continuously measure oxygen concentration and proton flux in the cell supernatant over time (Wu et al., 2007). The oxygen concentration and proton flux measurements are converted in OCR and ECAR values. This enables a direct quantification of mitochondrial respiration and glycolysis. The aim of the seahorse assays is to evaluate the impact of selected compounds on mitochondrial function in patient-derived fibroblasts compared to controls. Compounds used in the seahorse assays include posacanazole, sertaconazole, glabridin, zinglibroside (ginsenoside Z R1), AM281, cysteamine bitrartate, PF-06447475, losmapimod, telepravir, miltefosine, incyclinide, poziotinib, and methylene blue.
(§2) • Basal Oxygen Consumption (OCR): This reflects the cellular oxygen usage under basal conditions, encompassing both energy production (ATP turnover) and background oxygen leak from the mitochondria. • Oligomycin Injection: Oligomycin is a compound that inhibits ATP synthase, an enzyme crucial for ATP production within mitochondria. • Oligomycin-resistant Respiration: After oligomycin injection, minimal oxygen consumption persists, representing non-ATP linked oxygen leak from the mitochondria, often termed proton leak. • ATP-linked Respiration: This value is derived by subtracting the oligomycin-resistant respiration from the basal OCR. It signifies the oxygen consumption specifically linked to ATP production through mitochondrial oxidative phosphorylation. • Mitochondrial Bioenergetic Efficiency: This parameter reflects the percentage decrease in oxygen consumption observed after oligomycin injection, indicating the mitochondria's efficiency in utilizing oxygen for ATP generation. • FCCP Injection: FCCP is a chemical that disrupts the link between mitochondrial electron transport and ATP production. • Maximal Respiration: Following FCCP injection, the highest oxygen consumption rate is measured, representing the maximum capacity of the mitochondria to utilize oxygen for respiration. • Spare Respiratory Capacity: This parameter is calculated by subtracting basal respiration from maximal respiration.
GM28010 primary human fibroblasts obtained from patients with SURF1 Leigh syndrome were purchased from the Coriell Cell Repositories (Camden, N.J.; repository number GM28010).
GM00038 primary human fibroblasts purchased from the Coriell Cell Repositories (Camden, N.J., repository number GM00038) and were used as a healthy control.
Fibroblasts were grown in glucose according to recommendation. Cells were plated in XF96 plates in culture medium and plated at 10,000 cells/well. The day after plating, the cells were treated with the compounds. The treatments completed in glucose medium and galactose medium. The compounds were tested at for 48 hours. The compounds were incubated at (37 C, 5% CO2) until the day of the experiment. The fibroblasts were run at passage numbers: GM28012 SURF1 Fibroblasts P5.
The assay medium was 10 mM glucose or galactose DMEM supplemented with 2 mM glutamine and 1 mM pyruvate. Injection Ports for basal glucose: Port A: 2 μM oligomycin; Port B: 2.5 μM FCCP; Port C: 4 μM FCCP; and Port D: 2 μM rotenone and antimycin A.
The data were normalized to cell number per well after the run. The Hoechst-stained nuclei were counted with a Operetta High-Content Imager.

In series [2] the test system is GM28010 SURF1 mutant fibroblasts. As to the kind of experiment: Seahorse mitochondrial stress test, fibroblast cell line GM28010 (Experiment 1, single compounds). Format: cell-based, human. The following applies: 48 h; for ATP-linked respiration / basal respiration: galactose-cultured cells. How it is done: as §1
Fibroblast cell line GM28010 is a primary human fibroblast cell line obtained from patients with SURF1 Leigh syndrome. It was purchased from the Coriell Cell Repositories (Camden, NJ, repository number GM28010). Cell line GM00038 was used as a healthy control for GM28010 and is a primary human fibroblast purchased from the Coriell Cell Repositories (Camden, NJ, repository number GM00038).
Fibroblasts were grown in glucose according to recommendation.
Cells were plated in XF96 plates in culture medium and were plated at 10,000 cells/well.
The day after plating, cells were treated with the compounds in Table 1. The treatments were completed in glucose medium and galactose medium. The compounds were tested at for 48 hours. The compounds were incubated at (37 C, 5% CO2) until the day of the experiment.
*Fibroblasts were run at passage numbers: GM28010 SURF1 Fibroblasts P5; GM00038F controls P9.
• Assay Medium: 10 mM glucose or galactose DMEM supplemented with 2 mM glutamine and 1 mM pyruvate. • Injection Ports for basal glucose: Port A: 2 μM oligomycin; Port B: 2.5 μM FCCP; Port C: 4 μM FCCP; and Port D: 2 μM rotenone and antimycin A.
Data were normalized to cell number per well after the run. The Hoechst-stained nuclei were counted with the Operetta High-Content Imager.
as §2

The mark [3] stands for this setting: glucose and galactose conditions.
Setting [4] is: 10 μM, listed as Ginsenoside Z R1 (Zinglibroside).
Setting [5] is: glucose-cultured cells, listed as incyclinide.

Consider `Cc1c(C(=O)NN2CCOCC2)nn(-c2ccc(Cl)cc2Cl)c1-c1ccc(I)cc1` [AM281], for which, in series [1], the ATP production rates entry is listed as “increased ATP production rates” and the “maximal respiration (maximal OCR)” value is “dose-dependent decreased maximal respiration”. The ATP via glycolysis entry in series [1] (1 μM and 5 μM) is given as “OCR. ↑ATP via glycolysis @”. Also, the “ATP production through glycolysis” value in series [2] (5 and 10 μM) was “increase in ATP production primarily through glycolysis”. For the same compound, the respiration entry in series [2] (setting [3]) is “did not result in major changes”.
As to `CC1(C)CC[C@]2(C(=O)O)CC[C@]3(C)C(=CC[C@@H]4[C@@]5(C)CC[C@H](O[C@@H]6O[C@H](C(=O)O)[C@@H](O)[C@H](O)[C@H]6O[C@@H]6O[C@H](CO)[C@@H](O)[C@H](O)[C@H]6O)C(C)(C)[C@@H]5CC[C@]43C)[C@@H]2C1` [Ginsenoside Z R1], the “ATP production through OXPHOS” value in series [1] was “increase in ATP production”; in series [1] (1 μM), “increased ATP production through OXPHOS”; in series [2] (setting [4]), “increase in ATP production”; in series [2] (10 μM, listed as Zinglibroside), “both conditions: ↑ATP via”; in series [2] (10 μM, listed as zinglibroside) it was “increase in ATP production”. Also, the “ATP production through glycolysis” value in series [1] is on record as “increase in ATP production”; in series [2] (setting [4]), “increase in ATP production”; in series [2] (10 μM, listed as Zinglibroside), “both conditions: ↑ATP via”; in series [2] (10 μM, listed as zinglibroside) it was “increase in ATP production”. Further, in series [1] (1 μM), the “total ATP production rate” value is “increased ATP production through OXPHOS and total ATP production rate”. Further, in series [1], the “maximal respiration (maximal OCR)” value is given as “did not result in changes”. Moreover, in series [2] (setting [3]), the maximal respiration entry is reported as “did not result in changes”.
Consider `CC1(C)C=Cc2c(ccc3c2OC[C@@H](c2ccc(O)cc2O)C3)O1` [Glabridin, glabridin], for which the “maximal respiration (maximal OCR)” value in series [1] is “↓ maximal OCR in both”; in series [1] (listed as glabridin) it was “decreased maximal respiration”. Besides, the respiration result is reported as “did not result in major changes” in series [2] (setting [3]); “did not result in major changes” in series [2] (glucose and galactose conditions, listed as glabridin).
With `NC(=O)C1=C(O)C[C@@H]2C[C@@H]3Cc4cccc(O)c4C(=O)C3=C(O)[C@]2(O)C1=O` [Incyclinide, incyclinide], the “all respiratory parameters measured” value in series [1] (glucose-cultured cells) and in series [2] (glucose-cultured cells) was “dose-dependent decrease” each time. For the same compound, the toxicity entry is “Toxicity observed in glucose” in series [1] (glucose-cultured cells), “showed toxicity” in series [1] (setting [5]), “Toxicity in glucose” in series [2] (glucose-cultured cells) and “some toxicity” in series [2] (setting [5]). The ATP-linked respiration result was “↑ basal respiration and ATP-” in series [2]; “some increase” in series [2] (listed as incyclinide). Further, the basal respiration entry in series [2] is “↑ basal respiration and ATP-”; in series [2] (listed as incyclinide), “some increase”.
On to `C=CC(=O)N1CCC(Oc2cc3c(Nc4ccc(Cl)c(Cl)c4F)ncnc3cc2OC)CC1` [Poziotinib, poziotinib], for which the respiration result in series [2] (glucose and galactose conditions, listed as poziotinib) is given as “did not result in major changes”. Moreover, in series [2] (glucose-cultured cells), the glycolysis result is “dose-dependent decrease”, the maximal respiration result was “dose-dependent decrease” and the toxicity result is on record as “some toxicity”. Also, the “ATP production through glycolysis” value in series [2] (listed as poziotinib) is recorded as “decrease ATP production through glycolysis”.
